# What was measured:
# Test in all cases: normalised viability (% of control), CellTiter-Blue; higher = more viable cells (about 100 = DMSO control)
# Settings in all cases: incubation time: 72 h
# CAL-148 [1] = system: CAL-148
# Protocol: (§1)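 DSRT, CellTiter-Blue viability, 72 h incubation. Signal is normalised to DMSO and benzethonium chloride controls. Value is the normalised response at dose 6.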
# CAL-51 [2] = system: CAL-51
# Protocol: as §1
# CAL-85-1 [3] = system: CAL-85-1
# Protocol: as §1
# DU-4475 [4] = system: DU-4475
# Protocol: as §1
# HDQ-P1 [5] = system: HDQ-P1
# Protocol: as §1
# MDA-MB-453 [6] = system: MDA-MB-453
# Protocol: as §1
# CAL-148 [7] = system: CAL-148; remark: listed apart in the source
# Protocol: (§2)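 DSRT, CellTiter-Blue viability, 72 h incubation. Signal is normalised to DMSO and benzethonium chloride controls. Value is the normalised response at dose 8.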
# CAL-51 [8] = system: CAL-51; remark: listed apart in the source
# Protocol: as §2
# CAL-85-1 [9] = system: CAL-85-1; remark: listed apart in the source
# Protocol: as §2
# DU-4475 [10] = system: DU-4475; remark: listed apart in the source
# Protocol: as §2
# HDQ-P1 [11] = system: HDQ-P1; remark: listed apart in the source
# Protocol: as §2
# MDA-MB-453 [12] = system: MDA-MB-453; remark: listed apart in the source
# Protocol: as §2
Structure (SMILES),normalised viability (CAL-148 [1]),normalised viability (CAL-51 [2]),normalised viability (CAL-85-1 [3]),normalised viability (DU-4475 [4]),normalised viability (HDQ-P1 [5]),normalised viability (MDA-MB-453 [6]),normalised viability (CAL-148 [7]),normalised viability (CAL-51 [8]),normalised viability (CAL-85-1 [9]),normalised viability (DU-4475 [10]),normalised viability (HDQ-P1 [11]),normalised viability (MDA-MB-453 [12])
COc1ncc(-c2ccc3nccc(-c4ccnnc4)c3c2)cc1NS(=O)(=O)c1ccc(F)cc1F (30 nM),43.7%,33.1%,50.4%,63.6%,30.4%,12.1%,–,–,–,–,–,–
COc1ncc(-c2ccc3nccc(-c4ccnnc4)c3c2)cc1NS(=O)(=O)c1ccc(F)cc1F (300 nM),–,–,–,–,–,–,6.61%,6.4%,17.9%,37.8%,21.2%,4.39%
C[C@@]1(C(=O)Nc2ccc(F)nc2)CCCN1c1nc(Nc2cc(C3CC3)n[nH]2)c2cccn2n1 (300 nM),95.7%,88.3%,65.7%,77.7%,50.3%,84.6%,–,–,–,–,–,–
C[C@@]1(C(=O)Nc2ccc(F)nc2)CCCN1c1nc(Nc2cc(C3CC3)n[nH]2)c2cccn2n1 (3000 nM),–,–,–,–,–,–,42.9%,31.4%,38.1%,14.8%,25.6%,65.4%
COc1c(C)cnc(Cn2cnc3c(Cl)nc(N)nc32)c1C [BIIB021] (300 nM),29.5%,57.6%,56.8%,0.39%,60.8%,17.3%,–,–,–,–,–,–
COc1c(C)cnc(Cn2cnc3c(Cl)nc(N)nc32)c1C [BIIB021] (3000 nM),–,–,–,–,–,–,17%,10.2%,22.9%,-0.3%,33%,6.99%
CC(C)C[C@H](NC(=O)[C@H](Cc1ccccc1)NC(=O)c1cnccn1)B(O)O [Bortezomib] (30 nM),41%,67.6%,7.63%,9.69%,2.53%,24%,–,–,–,–,–,–
CC(C)C[C@H](NC(=O)[C@H](Cc1ccccc1)NC(=O)c1cnccn1)B(O)O [Bortezomib] (300 nM),–,–,–,–,–,–,9.74%,1.35%,2.25%,0.52%,1.48%,19.3%
CS(=O)(=O)OCCCCOS(C)(=O)=O [Busulfan] (3000 nM),114%,92.8%,106%,76%,83%,99.9%,–,–,–,–,–,–
CS(=O)(=O)OCCCCOS(C)(=O)=O [Busulfan] (30000 nM),–,–,–,–,–,–,107%,100%,96.5%,91%,102%,117%
C#Cc1cccc(Nc2ncnc3cc(OC)c(OCCCCCCC(=O)NO)cc23)c1 [CUDC-101] (300 nM),81.9%,105%,64.1%,75.1%,38.8%,46%,–,–,–,–,–,–
C#Cc1cccc(Nc2ncnc3cc(OC)c(OCCCCCCC(=O)NO)cc23)c1 [CUDC-101] (3000 nM),–,–,–,–,–,–,11.9%,68%,4.33%,35%,41.6%,4.71%
CC[C@@]1(O)C(=O)OCc2c1cc1n(c2=O)Cc2cc3ccccc3nc2-1 [Camptothecin] (150 nM),12.8%,12.7%,61%,13.9%,48.3%,50.7%,–,–,–,–,–,–
CC[C@@]1(O)C(=O)OCc2c1cc1n(c2=O)Cc2cc3ccccc3nc2-1 [Camptothecin] (1500 nM),–,–,–,–,–,–,1.27%,4.85%,25.1%,0.88%,31.6%,21.5%
COc1cccc2c1C(=O)c1c(O)c3c(c(O)c1C2=O)C[C@@](O)(C(C)=O)C[C@@H]3O[C@H]1C[C@H](N)[C@H](O)[C@H](C)O1 [Daunorubicin] (30 nM),59.5%,54.5%,94.6%,64.7%,74.9%,93.7%,–,–,–,–,–,–
COc1cccc2c1C(=O)c1c(O)c3c(c(O)c1C2=O)C[C@@](O)(C(C)=O)C[C@@H]3O[C@H]1C[C@H](N)[C@H](O)[C@H](C)O1 [Daunorubicin] (300 nM),–,–,–,–,–,–,48.7%,31.2%,53.8%,33.6%,52.7%,76.1%
CN1CCN(c2ccc3nc(-c4c(N)c5c(F)cccc5[nH]c4=O)[nH]c3c2)CC1 [Dovitinib] (300 nM),98.7%,109%,86.9%,86.5%,54.7%,94.5%,–,–,–,–,–,–
CN1CCN(c2ccc3nc(-c4c(N)c5c(F)cccc5[nH]c4=O)[nH]c3c2)CC1 [Dovitinib] (3000 nM),–,–,–,–,–,–,90.2%,109%,86.9%,87.9%,87.4%,93.4%
O=c1[nH]c(=O)n([C@H]2C[C@H](O)[C@@H](CO)O2)cc1F [Floxuridine] (300 nM),55.2%,35%,58.7%,76%,78.8%,90.8%,–,–,–,–,–,–
O=c1[nH]c(=O)n([C@H]2C[C@H](O)[C@@H](CO)O2)cc1F [Floxuridine] (3000 nM),–,–,–,–,–,–,44.8%,22.8%,42.9%,97.9%,80.1%,71.8%
